Patent US20250280843A1, “METHOD FOR INHIBITING POTATOES FROM GREENING AND USE THEREOF” (priority 2024, published 2025)
Read-outs that look alike come from different tables or passages of the source.

Columns and labels:
potatoes = assay type: in vivo, potato; settings: under illumination; specific experimental data omitted
Excerpt: Ethylene, as a plant hormone that promotes maturity and aging, can be produced by some plants themselves and exists in a certain amount in the storage environment and even in the air. Ethylene binds with a related receptor inside a cell to activate a series of physiological and biochemical reactions related to maturity, thereby accelerating aging and death. 1-MCP can also bind well with an ethylene receptor, but such binding will not cause a biochemical reaction of maturity. Therefore, before the production of endogenous ethylene in a plant or the action of exogenous ethylene, if 1-MCP is applied, it will bind with the ethylene receptor first, thereby preventing the binding of ethylene with the receptor thereof, which greatly prolongs the ripening and aging process of fruits and vegetables and extends the length for preservation. There are many reagents that bind with the ethylene receptor to control the production of ethylene, e.g. aminooxyacetic acid (AOA), salicylic acid (SA), 2,5-norbornadiene (2,5-NBD), silver thiosulfate (STS), and aminooxyvinylglycine (AVG). These reagents are all ethylene inhibitors.

[1] = test system: chlorophyll degradation-related genes; assay: Gene expression by real-time PCR: chlorophyll degradation genes; set-up: species or system potato; settings: during the greening period; vs control
Experimental: Chlorophyll degradation-related genes included StSGR, StNYC1, StTIC, and StPAO.
(§1) Total RNA was extracted from frozen potato skins and transformed into cDNA. The expression levels of the aforementioned genes were determined by a Bio-Rad CFX 96 Real-Time PCR System (BIO-RAD, Hercules, CA, USA) and a SYBR Green I Master Mix (Vazyme, Nanjing, Jiangsu, China). Thermocycling conditions included an initial denaturation step at 95° C. for 30 s, followed by 39 cycles of 95° C. for 15 s, then 55° C. for 30 s, and 72° C. for 20 s. Three biological replicates were used, and each replicate was measured for three times. StEF-1a was used as a reference gene for potatoes. Gene expression was calculated by using a 2-ΔCt method.

potato tubers [2] = assay: Determination of ethylene release amount; assay type: in vivo, potato ("V7"); settings: illumination group, entire storage period 12 d; vs control
Experimental: (§2) “V7” potatoes were used as experimental materials. They were collected from Dongyu Vegetable Market in Ningbo City, Zhejiang Province. They were freshly picked and transported to the laboratory at room temperature. They were cleaned, and tubers of uniform sizes and free of diseases and insect pests and free of mechanical damages were selected as experimental samples. The samples were divided into two groups, immersed in distilled water for 10 min and then naturally air-dried after the immersion treatment was ended.
(§3) One group served as a control group (CK) without any subsequent treatment, and contained 50 potatoes. For another group, a carton was provided, in which 50 potatoes were placed. The carton was placed in a controlled atmosphere storage box with a volume of 1,000 L at a temperature controlled at 25° C. and the humidity maintained at 60%. The gas composition in the controlled atmosphere storage box was maintained the same as that of the atmosphere. A space was reserved in the controlled atmosphere storage box. 10 mg of 1-MCP dry powder was weighed into a glass weighing bottle. […]
4 potato tubers were randomly selected and placed in a sealed container (illumination group). They were placed at respective storage temperatures for 3 h, and then 5 mL of gas was extracted and determined for ethylene content using a Shimadzu type 2014C gas chromatograph (Shimadzu, Japan). […]

StPOD42 = assay: Gene expression by real-time PCR: germination-promoting gene; set-up: species or system potato; settings: during storage; vs control
Experimental: Germination-promoting genes included StPOD42 (XM_006363284.2).
as §1

potato tubers [3] = assay: Long-term preservation effect under natural illumination; assay type: in vivo, potato ("V7"); settings: for color difference value: natural day/night, 25±1° C.
Experimental: (§4) One group served as a control group (CK) without any subsequent treatment, and contained 50 potatoes. For another group, a carton was provided, in which 50 potatoes were placed. The carton was placed in a controlled atmosphere storage box with a volume of 1,000 L at a temperature controlled at 25° C. and the humidity maintained at 60%. The gas composition in the controlled atmosphere storage box was maintained the same as that of the atmosphere. A space was reserved in the controlled atmosphere storage box. 10 mg of 1-MCP dry powder was weighed into a glass weighing bottle. The weighing bottle containing 1-mcp was placed in the controlled atmosphere storage box, and added with 2 ml of a 1M NaOH solution to release 1-mcp gas from the weighing bottle. The weight of the gas was 10 mg. The potatoes were placed in the gas environment, fumigated for 16 h, taken out and then air-dried for 1 h. The meaning of “fumigation” here was to put the potatoes in a gas environment of 10 mg 1-mcp in a 1,000 L controlled atmosphere storage box, which was equivalent to a concentration of 0.01 milligrams of the 1-mcp gas per liter of gas.
In order to simulate natural illumination, the aforementioned control and treated potatoes were placed in an incubator (fully transparent), and placed under conditions of 25±1° C. and relative humidity of 60% in an outdoor environment. Based on the environment with natural alternation of day and night, the color difference was calculated through instruments. The change in color difference values was measured every 5 days during storage for 2, 3, and 6 months. […] In the 2nd month of storage, the color difference value of the control group was −14, while the test value of the treatment group was −2.2.

[4] = cited from earlier work
potato tubers [5] = assay: Determination of chlorophyll content; assay type: in vivo, potato ("V7"); settings: illumination group, during storage 12 d; vs control
Experimental: as §2
as §3, with “atmosphere.” for “atmosphere. A space was reserved in the controlled atmosphere storage box. 10 mg of 1-MCP dry powder was weighed into a glass weighing bottle.”
0.2 g of a potato frozen sample (the sample of the illumination group) was taken, grounded into a homogenate with 1.5 mL of 95% (v/v) ethanol in an ice bath, and then centrifuged at a rotational speed of 10.000 r/min for 10 min. The precipitate was discarded, the supernatant was taken, and 95% ethanol was used as a blank group, to determine the absorbance values at 649 nm and 665 nm, respectively. […]

[6] = test system: solanine synthesis-related genes; assay: Gene expression by real-time PCR: solanine synthesis genes; set-up: species or system potato; settings: during the greening period; vs control
Experimental: Genes related to inhibition of solanine synthesis included StHMGR, StPSS1, StSQE1, StCAS1, StSSR2, StSSR1, StPGA2, StPGA1, StDOX, StGAME6, StPGA3, StGAME12, StSGT1, StSGT2, and StSGT3.
as §1

[7] = test system: chlorophyll synthesis-related genes; assay: Gene expression by real-time PCR: chlorophyll synthesis genes; set-up: species or system potato; settings: during the greening period; vs control
Experimental: Chlorophyll synthesis-related genes included StHEMA, StGSA, StPBGD, StCPO, StPPO, StCHLD, StCHLI, StCHLH, STCHLHM, StCRD1, StPOR1, StPOR2, StCHLG, and StCHLP.
as §1

potato tubers [8] = assay: Determination of solanine content (LC-MS); assay type: in vivo, potato ("V7"); settings: vs control
Experimental: as §2
One group served as a control group (CK) without any subsequent treatment, and contained 50 potatoes. For another group, a carton was provided, in which 50 potatoes were placed. The carton was placed in a controlled atmosphere storage box with a volume of 1,000 L at a temperature controlled at 25° C. and the humidity maintained at 60%. The gas composition in the controlled atmosphere storage box was maintained the same as that of the atmosphere. A space was reserved in the controlled atmosphere storage box. 10 mg of 1-MCP dry powder was weighed into a glass weighing bottle. The weighing bottle containing 1-mcp was placed in the controlled atmosphere storage box, and added with 2 ml of a 1M NaOH solution to release 1-mcp gas from the weighing bottle. The weight of the gas was 10 mg. The potatoes were placed in the gas environment, fumigated for 16 h, taken out and then air-dried for 1 h. The meaning of “fumigation” here was to put the potatoes in a gas environment of 10 mg 1-mcp in a 1,000 L controlled atmosphere storage box, which was equivalent to a concentration of 0.01 milligrams of the 1-mcp gas per liter of gas. […]
Solanine was mainly composed of solanine and chaconine, with solanidine as aglycone. Therefore, α-solanine and α-chaconine (Sigma-Aldrich, USA) were used as chemical standards for quantification of SGA content. • 1) Liquid chromatography conditions: AgilentEclipsePlusC18 chromatographic column (100 mm×2.1 mm, 1.8 μm); the mobile phase A was 1 mmol/L of an acidified ammonium formate solution, and the mobile phase B was acetonitrile. […]

potato tubers [9] = assay: Determination of greening index a* of potato tuber skin after fumigation; assay type: in vivo, potato ("V7"); settings: for greening index a*: fumigation 10 mg 1-MCP + NaOH 16 h; for Value of greening index a*: with NaOH
Excerpt: The method for inhibiting potatoes from greening was: treating potato tubers with 1-MCP, and specifically, fumigating potato tubers with 1-MCP and NaOH.
as §2, §4
Subsequently, the potatoes of the control group (2 groups) and the treatment group (2 groups) were bagged (two groups). The two groups were stored in a constant temperature and humidity chamber at 25±1° C. and relative humidity of 60% for 12 d. One of the groups was an illumination group with an illumination intensity of 10,000 LUX, and the other one was a group with protection from light having an illumination intensity of 0 LUX (in the dark). The tuber skin of the potatoes was taken every 3 d and photographed. The skin was then frozen in liquid nitrogen, and stored at −80° C. for subsequent analysis.
Potato tubers treated for corresponding days were picked out. 6 potatoes were randomly selected from each group. the skin of potato tuber was peeled off, and immediately measured for the color difference with a colorimeter (Shenzhen ThreeNH Technology Co., Ltd., model: NR60CP+), and the a* value was determined and recorded with a […] to indicate the color change of the potato skin. a* was an important parameter for measuring color and lustre. The positive or negative value indicated reddish (positive indicated reddish) or greenish (negative indicated greenish), and the magnitude of the absolute value indicated the degree of reddish or greenish. The colorimeter was calibrated with a standard white plate before determination.
Three groups of experiments were set up. One group was as described in Example 1, in which potato tubers were fumigated with 1-MCP and NaOH, serving as the control group in this experiment. The difference between an experimental group 1 and the control group was that no NaOH solution was used, but an equal volume of water was used. The difference between an experimental group 2 and the control group was that no NaOH solution was used, but an equal volume of anhydrous ethanol was used.
This example employed the method provided in Example 1, and employed 1-MCP and NaOH to fumigate potato tubers, where the dosages of 1-MCP were 1, 5, 10, 15, and 20 mg, respectively. The greening index a* value was determined by the same method as in Example 1.

silver thiosulfate
effect on greening of potatoes (potatoes): will not inhibit the potatoes from greening

NOCC(=O)O [aminooxyacetic acid]
effect on greening of potatoes (potatoes): will not inhibit the potatoes from greening

C1=CC2C=CC1C2 [2,5-norbornadiene]
effect on greening of potatoes (potatoes): accelerate the greening progress

1-methylcyclopropene [1-MCP]
expression amount of chlorophyll degradation genes [1]: significantly higher than those in the control group
ethylene release amount (potato tubers [2]): always lower than that of the control group
expression of the germination-promoting gene StPOD42 (StPOD42): did not affect the expression
appearance (green spots) (potato tubers [3]; 2nd month of storage): no obvious changes
color difference value (potato tubers [3]; 2nd month of storage): −2.2
germination in appearance (potato tubers [3]; 3 months of storage): a small amount of germination
occurrence of greening (potato tubers [3]; 3 months of storage): no occurrence of greening
color difference value (potato tubers [3]; 3 months of storage): −3.4
germination (potato tubers [3]; 6 months of storage): a small amount of germination
occurrence of greening (potato tubers [3]; 6 months of storage): no occurrence of greening
solanine content (potato tubers [3]; 6 months of storage): maintained within a safe range
color difference value (potato tubers [3]; 6 months of storage): −6.7
effect on greening of potatoes (potatoes): significantly inhibit potatoes from greening
solubility in solvent ([4]; 3-dichlorotoluene): 2000 µg/mL
water solubility ([4]; 20° C.): 137 µg/mL
solubility in solvent ([4]; acetone): 2400 µg/mL
solubility in solvent ([4]; ethyl acetate): 12500 µg/mL
solubility in solvent ([4]; heptane): 2500 µg/mL
solubility in solvent ([4]; methanol): 11250 µg/mL
solubility in solvent ([4]; xylene): 2300 µg/mL
chlorophyll content (potato tubers [5]): increased slowly compared with the control group
expression amount of solanine synthesis-related genes [6]: significantly lower than those in the control group
expression amount of chlorophyll synthesis-related genes [7]: significantly lower than those in the control group
solanine content (potato tubers [8]; during storage, dark or light): increased very slowly
α-chaconine content (potato tubers [8]; starting from the 3rd day): significantly different from those in the control group
α-solanine content (potato tubers [8]; starting from the 3rd day): significantly different from those in the control group
greening index a*: fumigation with NaOH compared with equal volume of water or ethanol (potato tubers [9]; Example 3, 1-MCP released with NaOH solution vs water vs anhydrous ethanol): significantly improve the effect of 1-MCP in inhibiting greening
greening index a* (potato tubers [9]; dark (0 LUX), 6th day of storage): basically no greening
Value of greening index a* (potato tubers [9]; dosage of 1-MCP 1 mg, storage 12 d): −3.2
Value of greening index a* (potato tubers [9]; dosage of 1-MCP 5 mg, storage 12 d): −2.1
Value of greening index a* (potato tubers [9]; dosage of 1-MCP 10 mg, storage 12 d): −1.2
Value of greening index a* (potato tubers [9]; dosage of 1-MCP 15 mg, storage 12 d): −1.8
Value of greening index a* (potato tubers [9]; dosage of 1-MCP 20 mg, storage 12 d): −2.6
greening index a* (potato tubers [9]; illumination 10,000 LUX, 25±1° C., storage 12 d, vs control): still remained at a relatively high level

O=C(O)c1ccccc1O [salicylic acid]
effect on greening of potatoes (potatoes): accelerate the greening progress
